Columns and labels:
Assay type in all cases: physicochemical
[1] = Half life of the compound at 70 uM in MOPS aqueous buffer (250 mM, pH 7.0) containing MeCN (25% v/v) at 24 degC by HPLC analysis; settings: pH 7, 70 µM
[2] = Half life of the compound at 70 uM in MOPS aqueous buffer (300 mM, pH 7.0) containing MeCN (25% v/v) at 24 degC in presence of 700 uM GSH by HPLC analysis; settings: pH 7, 70 µM
[3] = Half life of the compound in sodium phosphate buffer (10 mM, pH 7.0) at 37 degC containing methanol (10% v/v)
[4] = Half life of the compound at 100 uM in HEPES buffer (250 mM, pH 7.0) at 24 degC containing no organic solvent

Row | SMILES | t1/2 [1] [h] | t1/2 [2] [h] | half-life [3] [h] | half-life at 100 µM [4] [h]
1 | CC1(C)[S+]([O-])SC(=O)[C@@]1(C)O (stereo partly drawn) | 0.883 | 0.0467 |  | 
2 | CC1(C)[S+]([O-])SC(=O)[C@]1(C)O (stereo partly drawn) | 1.87 | 0.0633 |  | 
3 | C/C1=C\[C@@H](O)C(=O)/C=C/C=C\c2csc(n2)[C@@H](C)NC(=O)C[C@@]2(CC1)[S+]([O-])SC(=O)[C@]2(C)O (stereo partly drawn) [LEINAMYCIN] | 27 | 0.173 | 8 | 16.1

Reference: ChEMBL document CHEMBL2046292, “The macrocycle of leinamycin imparts hydrolytic stability to the thiol-sensing 1,2-dithiolan-3-one 1-oxide unit of the natural product” (Bioorg Med Chem Lett, 2012)
